The values below come from US11149300B1, “Methods of treating gastrointestinal malignancies” (Cedars-Sinai Medical Center, priority 2018, dated 2021).

Where a name gives a salt, the structure may show the parent alone. Read-outs that look alike come from different tables or passages of the source.

Data set [1] has as its system B Cell lymphoma (human DOHH2). Conditions: agent combined with veliparib; cited from earlier work.
Data set [2] deals with Breast carcinoma (human MX-1). Conditions: agent combined with veliparib; cited from earlier work.
For data set [3] the following is noted: in vivo; cited from earlier work.
The subject of data set [4] is Melanoma (murine B16F10). Conditions: agent combined with veliparib; cited from earlier work.
Data set [5] relates to pancreatic cancer. Conditions: in vivo; cited from earlier work.
Data set [6] has as its system pancreatic cancer. Conditions: full-dose gemcitabine with 36 Gy; cited from earlier work.
Data set [7] has as its system locally advanced and metastatic pancreatic carcinomas. Conditions: cited from earlier work.
For data set [8], the system named is unresectable pancreatic cancer. The following applies: cited from earlier work.
The conditions of data set [9]: human, in vivo; cited from earlier work.
The test system of data set [10] is locally advanced and metastatic pancreatic adenocarcinoma. The following applies: cited from earlier work.
For data set [11], the system named is pancreatic cancer. The following applies: cited from earlier work.
The conditions of data set [12]: cited from earlier work.
For data set [13] the following is noted: mice, cited from earlier work.
Data set [14] deals with locally advanced or borderline resectable pancreatic cancer. The data set can be described thus: Phase I VelGemRad trial, PFS and OS, overall and by DDR biomarker.
Description: RNA-seq libraries were prepared from pre-treatment tumor biopsies. The database for annotation, visualization, and integrated discovery (DAVID) v6.7 was used to interpret the differential expression genes data. Cox regression model was used to identify DNA damage related pathways associated with patient survivals.
The secondary objective was to measure the clinical activity of the treatment (progression free survival—PFS, overall survival—OS) and evaluate patient tumor or blood pre-, during and post treatment for DNA damage repair alterations, PAR levels and immune mediators. Between 2013 and 2016, 34 patients enrolled at a single institution. Four were removed due to non-compliance. The median age was 67 and 24 were LAPC and 6 were borderline resectable prostate cancer (BR).
Treatment naïve patients with LA or borderline resectable pancreatic cancer (BR) were treated with weekly G (1000 mg/m^2), daily RT (36 Gy/15 fractions) and V 20 mg BID daily for 3 weeks escalated per Bayesian method followed by standard chemotherapy. DAVID v6.7 was used to interpret transcriptomic differential expression of genes. Cox regression model was used to identify DDR pathways associated with survival. […] The log-rank test was used to evaluate differences in PFS and OS.
Data set [15] addresses human 5-HT7 (Homo sapiens, UniProt P34969). Conditions: 10 μM (2.4 μg/mL); cited from earlier work.
The test system of data set [16] is C-41 cells. The following applies: cited from earlier work.
The conditions of data set [17]: cited from earlier work. This is another data set of the same source.
For data set [18], the system named is PARP. The following applies: cited from earlier work.
The conditions of data set [19]: cited from earlier work. The source holds these as a separate data set.
Data set [20] relates to PAR in PBMCs and tumor. The following applies: cited from earlier work; for treatment related adverse events: single dose 10 or 25 mg.
Data set [21] in a line: anesthetized dog cardiovascular model.
The conditions of data set [22]: 8-hour incubation; cited from earlier work.
The conditions of data set [23]: dog, 5 μM; cited from earlier work.
The conditions of data set [24]: monkey; cited from earlier work.
Data set [25] has as its system metastatic triple negative breast cancer. The following applies: cited from earlier work.
The conditions of data set [26]: in vitro; cited from earlier work.
The conditions of data set [27]: cited from earlier work. This is another data set of the same source.
The conditions of data set [28]: highest dose tested; cited from earlier work.
Data set [29] can be described thus: repeated dose toxicity in conjunction with cisplatin. It is filed as in vivo, rats.
Data set [30] can be described thus: repeated dose (2-week) toxicology study. Conditions: 30 mg base/kg/day.
Data set [31] can be described thus: repeated dose toxicity, sole agent. Conditions: no adverse effects, highest dose tested. It is filed as in vivo, rats.
The mark [32] stands for this setting: all patients, with gemcitabine and IMRT.
Setting [33] is: biomarker positive (+), DNA repair defects by gene expression.

Sequence of human 5-HT7 (P34969 whole entry): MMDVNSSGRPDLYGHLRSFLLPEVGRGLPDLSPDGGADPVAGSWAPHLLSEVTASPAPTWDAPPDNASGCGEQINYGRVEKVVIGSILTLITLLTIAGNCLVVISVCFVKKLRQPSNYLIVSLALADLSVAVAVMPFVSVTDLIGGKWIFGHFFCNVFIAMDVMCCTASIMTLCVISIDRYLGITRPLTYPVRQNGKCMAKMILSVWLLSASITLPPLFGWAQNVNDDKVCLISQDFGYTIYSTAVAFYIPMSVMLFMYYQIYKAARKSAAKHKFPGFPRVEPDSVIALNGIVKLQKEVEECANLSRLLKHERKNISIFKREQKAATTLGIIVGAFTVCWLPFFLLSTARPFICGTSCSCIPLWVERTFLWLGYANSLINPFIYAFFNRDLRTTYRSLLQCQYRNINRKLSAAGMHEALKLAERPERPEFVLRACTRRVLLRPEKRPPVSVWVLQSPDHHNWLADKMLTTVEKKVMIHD

As to `N.N.[Cl][Pt][Cl]` [Cisplatin], the “veliparib mediated potentiation of cytotoxic agent” value (“veliparib mediated potentiation” for short) in [1] was “No”; in data set [2], “Yes”.

For the compound `CC1(c2nc3c(C(N)=O)cccc3[nH]2)CCC(=O)N1` (stereo not shown) [A-925088], in data set [3], the route of clearance result is recorded as “cleared primarily in the urine”.

Take `CCc1c2c(nc3ccc(OC(=O)N4CCC(N5CCCCC5)CC4)cc13)-c1cc3c(c(=O)n1C2)COC(=O)[C@]3(O)CC` [Irinotecan]: the “veliparib mediated potentiation” value in [4] was “Yes”.

For the compound `O=c1[nH]cc(F)c(=O)[nH]1` [5 FU], in data set [5], the median survival is listed as 4.41 months and the “patients with clinical benefit” value is reported as 5%.

Turning to `Nc1ccn([C@@H]2O[C@H](CO)[C@@H](O)C2(F)F)c(=O)n1` [gemcitabine, 2′,2′-Difluoro-2′-deoxycytidine], the disease control rates in [6] was 84.6%. The response rates is 5.1% in data set [6], “up to 42%” in [7] (chemo naïve patients) and 11-22% in [7] (heavily pretreated patients). Moreover, in [6], the tolerability entry is “well-tolerated”. The “patients with DLT” value in data set [8] (FDR-G with IMRT 50-60 Gy) is listed as 6 patients. For the same compound, the median overall survival in data set [8] (in vivo) is given as 23.1 months. Besides, the median progression-free survival in data set [8] (in vivo) is 7.2 months. In [8] (in vivo), the response rate is listed as 52.4%. Besides, in data set [9], the “time to steady-state plasma levels after starting infusion” value was not above 15 min. The median survival in data set [5] is recorded as 5.56 months; in [10] (FDR arm, 1,500 mg/m^2 over 150 minutes) it was 8.0 months; in data set [10] (standard arm, 2,200 mg/m^2 over 30 minutes), 5.0 months. The “patients with clinical benefit” value in [5] was approximately 25%. Besides, in data set [10] (FDR arm versus standard), the “intracellular gemcitabine triphosphate concentration” value is given as “two-fold increase”. In addition, the hematologic toxicity entry in [10] (FDR infusion arm) is on record as “increased but acceptable hematologic toxicity”. The objective responses was 8.8% in [11] (combined arm, gemcitabine 600 mg/m^2 with 50.4 Gy) and 2.7% in [11] (gemcitabine alone arm (1000 mg/m^2)). For the same compound, the “Grade IV toxicity” value is listed as 41.2% in data set [11] (combined group) and 5.7% in data set [11] (gemcitabine alone).

Regarding `N.N.O=C([O-])C1(C(=O)[O-])CCC1.[Pt+2]` [Carboplatin], in [2], the “veliparib mediated potentiation” value is “Yes”.

Take `O=P1(N(CCCl)CCCl)NCCCO1` (stereo not shown) [Cyclophosphamide]: the “veliparib mediated potentiation” value in [2] is on record as “Yes”.

`C[C@]1(c2nc3c(C(N)=O)cccc3[nH]2)CCCN1` [veliparib]: the potentiation of cisplatin result in [12] (long-term clonogenic assay) was “potentiation was observed”; in data set [12] (short-term cytotoxicity assay), “not in the short-term cytotoxicity assay”. Also, the “outcome after electrically-induced tonic convulsions” value in [13] (100 mg/kg PO) is given as “increased incidence of death”. In data set [13], the “outcome in audiogenic seizure model” value was “Death was also noted”. Also, the “median OS” value in data set [14] (FA biomarker (+)) worked out at 18 months; in [14] (FA biomarker (−)), 12 months; in [14] (MMR biomarker (+)) it was 18 months; in [14] (MMR biomarker (−)), 12 months; in data set [14] (NER biomarker (+)), 22 months; in [14] (NER biomarker (−)), 12 months. Besides, the figures for the “median OS” value in data set [14] (biomarker negative (−)) and in [14] (setting [33]) were 12 mos and 22 mos, respectively. Further, the “median overall survival (OS)” value in data set [14] (setting [32]) was determined as 14.6 months. For the same compound, the “median progression free survival (PFS)” value in data set [14] (setting [32]) is 9.8 months. Besides, the “median PFS” value in [14] (biomarker negative (−)) worked out at 8 mos; in data set [14] (setting [33]), 17 mos. For the same compound, the “displacement of control-specific binding” value in data set [15] is given as 84%. Moreover, the “γ-H2AX foci (DNA damage)” value in [16] (added to 1 mM temozolomide) is on record as “further potentiated”. Besides, the “DNA damage caused by irinotecan” value in data set [16] (with irinotecan) is on record as “potentiates”. Also, in data set [17] (12.96 μg/mL), the “change in mean arterial pressure versus baseline” value was −16±5%. Moreover, the “change in systemic vascular resistance versus baseline” value in [17] (12.96 μg/mL) is −10±7%. For the same compound, in data set [17] (12.96±0.92 μg/mL), the “QTcV prolongation above baseline” value is on record as 15±3%. Moreover, in data set [17] (dog, in vivo), the “mean plasma concentration with modest haemodynamic effects” value is 12960 ± 920 ng/mL. Further, the “mean plasma concentration without haemodynamic change” value in [17] (dog, in vivo) is 4450 ± 130 ng/mL. Besides, the “mean arterial pressure, heart rate, dP/dtmax, pulmonary arterial pressure, vascular resistance” value in data set [17] (mean plasma concentrations up to 4.45 μg/mL) is on record as “no physiologically relevant changes”. In addition, the “delayed repolarization (QTc intervals), trend” value in [17] (plasma concentrations 21-fold predicted Cmax) is listed as 7%. Further, the “inhibition of PARP activity in tumors” value in [18] (12.5, 5 and 1 mg/kg/day, vehicle and temozolomide treated groups) is on record as “significant”. For the same compound, in [18] (veliparib alone, two hours after administration), the “PAR formation in tumors” value is listed as “inhibited PAR formation in B16F10 tumors in a dose-dependent manner”. In addition, the seizures entry in data set [19] (60 mg/kg/day, 30 mg/kg twice daily or 30 mg/kg every day) is on record as “seizures were also noted”. Further, the “non-toxic dose in the most sensitive mammalian species” value in data set [19] (beagle dogs) is 300 mg/m^2. In addition, the “plasma concentrations in dogs with seizures” value in data set [19] (dog, in vivo) was more than 5400 ng/mL. Further, the “patients exceeding target plasma Cmax of 210 nM” value in data set [20] (10 mg dose level) is 2 of 3 patients. In addition, the “patients exceeding target plasma Cmax of 210 nM for at least 4 hours” value in data set [20] (25 mg dose level) is listed as “all three patients”. The “reduction of PAR levels from baseline” value in data set [20] (single 25 mg dose, PBMCs and tumor samples) is given as 80-99%. Moreover, the “treatment related adverse events” value in [20] is “No treatment related adverse events”; in [20] (listed as ABT-888), “no treatment related adverse events”. The figures for the “multiple of predicted clinical Cmax” value in [21] (at 4.45 μg/mL) and in [21] (at 12.96 μg/mL) were 21 fold and 62 fold, respectively. In [21] (dog, in vivo), the “multiple of predicted clinical Cmax at which QT prolongation was seen” value is listed as 21 fold. Also, the stability in plasma entry in data set [22] was “very stable”. Further, the “protein binding in plasma, % bound” value in data set [23] is given as 42%. Also, the oral bioavailability in data set [24] is 56.1%.

For `NC(=O)c1ccc(I)c([N+](=O)[O-])c1` [BSI-201], the “frequency and nature of adverse events” value in data set [25] (in vivo) is reported as “did not differ between arms”. Moreover, the “clinical outcome versus chemotherapy alone” value in data set [25] (with gemcitabine 1000 mg/m^2 and carboplatin AUC=2) was “improved CBR, median PFS, and median OS”.

On to `C[C@]1(c2nc3c(C(N)=O)cccc3[nH]2)CCCN1` [veliparib dihydrochloride], for which, in data set [26], the clastogenicity entry is recorded as “negative”. Moreover, in [26], the mutagenicity entry is “negative”. Also, in data set [19] (30 mg base/kg/day), the toxic findings result is “emesis, body weight losses related to anorexia, and convulsions”. Besides, the “exacerbation of cisplatin-associated toxicity” value in data set [27] (highest dose with cisplatin) is reported as “Exacerbation of cisplatin-associated toxicity”; in [27] (lower doses with cisplatin), “no clinically meaningful exacerbations”. Besides, in [28], the “adverse effects, sole agent” value is reported as “did not result in adverse effects”. The “Cmax as multiple of estimated therapeutic peak plasma concentration” value in [29] (highest dose with cisplatin) is reported as 22 fold; in data set [30], 26 fold; in data set [31] it was “greater than 19 fold”. Moreover, in data set [29] (no clinically meaningful exacerbation), the “Cmax as multiple of estimated therapeutic value” was “up to 8 fold”.
